The values below come from patent publication US10550080B2 (BRISTOL-MYERS SQUIBB COMPANY, priority 2016, dated 2020).

The target of one data set is NaV1.5 (Homo sapiens (Human), UniProt Q14524). As to the kind of experiment: Automated electrophysiology, IonWorks Barracuda population patch clamp, NaV1.5 current (inactivated-state protocol). Type of data set: cell-based. The conditions noted are these: HEK 293 cells expressing NaV1.5; read-out: NaV1.5 Barra IC50. How it is done:
(§1) Automated Electrophysiology: Ion Works Barracuda population patch clamp (PPC). PPC measurements were performed using an IonWorks Barracuda instrument (Molecular Devices Corporation, Union City, Calif.) using either PatchPlate™ PPC substrates (Molecular Devices Corporation) with 64 apertures per well. The ability to average currents from 64 recordings from each well greatly improves data consistency and recording success rates in the measurement of NaV1.7 mediated ionic currents. Calculated leak current was digitally subtracted from the total cell NaV1.7 current for each sample point acquired.
(§2) NaV1.7 currents were elicited by a voltage clamp protocol designed to bias the NaV1.7 channels to their inactivated state as follows. From holding potential of −60 mV cells were briefly hyperpolarized to −100 mV for 1.25 sec, then stepped to −20 mV for 20 sec to inactivate the channels. This was followed by a relatively brief hyperpolarization to −100 mv for 300 ms, then a 20 msec test pulse to −20 mV to elicit the NaV1.7 current used to measure the pharmacology of all test compounds. Compounds were incubated for 600 sec between the pre- and post-compound reads. The external recording solution used was (in mM) 137 NaCl, 4 KCl, 1 MgCl2, 1.8 CaCl2, 10 Hepes, 10 glucose, pH to 7.4 with NaOH, and the internal solution used was (in mM) 100 K-gluconate, 40 KCl, 3.2 zMgCl2, 5 EGTA, 10 HEPES pH to 7.2 with KOH. The same solutions were used to record NaV1.5 currents, with the following voltage clamp protocol. NaV1.5 currents were elicited by a voltage clamp protocol designed to bias the NaV1.5 channels to their inactivated state as follows. From holding potential of −40 mV cells were briefly hyperpolarized to −100 mV for 300 ms, then stepped to −10 mV for 20 sec to inactivate the channels. This was followed by a relatively brief hyperpolarization to −100 mv for 30 ms, then a 20 msec test pulse to −10 mV to elicit the NaV1.5 current used to measure the pharmacology of all test compounds.
(§3) HEK 293 cells expressing NaV1.7 and NaV1.5 channels, were used (Essen Biosciences, Ann Arbor, Mich.). Cells were cultured in T-175 flasks and passaged every 2 to 3 days at 1:3 to 1:6 seeding density dilutions. Cells were grown to 70% to 90% confluence in a flask and removed from the incubator (37° C., 5% CO2) 1 to 3 days after plating. Growth medium was aspirated from the culture flasks. Cells were gently rinsed with 10 ml of PBS (Catalog number: 14190144, Gibco) to remove residual media. Next a total of 2 mL TrypLE (Gibco) solution was added, and the flasks containing cells were sat for 3 min at RT, after which, the cells became visibly rounded and were easily dislodged from the bottom of the flask with a few brief taps on a solid surface. A total of 8 mL of media was added to the flask to inactivate the TrypLE, and the mixture was centrifuged at 910 rpm for 4 min. The cell supernatant was decanted, and the cell pellets were resuspended in 5-6 mL of external solution followed by gentle triturations using a 10 ml pipette, and transferred to a 15 ml conical tube and immediately brought to the IW Barracuda instrument.
(§4) Peak membrane currents were analyzed with IW Barracuda software and exported to Excel for further analysis. Concentration response curve fitting was performed with BMS in-house software. IC50 values were obtained by fits of the Hill equation to the average percent inhibition data plotted versus compound concentration. […] Results are reported in Table 1 (NaV1.7 Barra IC50 in nM and NaV1.5 Barra IC50 in nM).

Another data set addresses NaV1.7 (Homo sapiens (Human), UniProt Q15858). As to the kind of experiment: Automated electrophysiology, IonWorks Barracuda population patch clamp, NaV1.7 current (inactivated-state protocol). It counts as cell-based. The conditions noted are these: HEK 293 cells expressing NaV1.7; 600 sec compound incubation; read-out: NaV1.7 Barra IC50. How it is done: as §1, §2, §3, §4

The target of another data set is hNaV1.7 (Homo sapiens (Human), UniProt Q15858). The data set is described as follows: Ligand Binding Assay (LBA), radioligand displacement on hNaV1.7 HEK293 cell membranes. The conditions noted are these: 0.5 nM [3H] radioligand, 24 hours at room temperature; read-out: NaV1.7 LBA IC50. How it is done: Ligand Binding Assay (LBA): hNaV1.7 binding affinities were determined with a filtration binding assay using purified membranes from HEK293 cells stably expressing hNaV1.7. HEK293 cells from a 10-stack cell culture flask (approximately 10^10 cells) were dissociated, frozen, and stored at −80° C. To prepare membranes, the frozen cell pellet was thawed and suspended in 6 ml hypotonic lysis buffer (50 mM HEPES, 0.1% mammalian protease inhibitor cocktail). 1 ml of resuspended cells was added to an additional 6 ml of lysis buffer and homogenized with 30 strokes of a tight pestle in a glass homogenizer. Homogenate was centrifuged at 1000×g for 10 minutes at 4° C. and the resulting supernatant was further centrifuged at 38,500×g for 60 minutes at 4° C. The resulting pellet was resuspended in binding buffer (50 mM HEPES, 130 mM NaCl, 5.4 mM KCl, 0.8 mM MgCl2, 5 mM glucose, pH 7.4) and needle homogenized with a 25 gauge needle. Protein concentration was determined with a BCA protein assay. Purified membranes were aliquoted, flash frozen in an ethyl alcohol dry ice bath, and stored at −80° C. To measure displacement of a radiolabeled ligand, 50 μg of purified hNaV1.7 HEK cell membranes were incubated with test compounds (eight concentrations, in duplicate) and 0.5 nM [3H] labeled radioligand in a 96 well plate for 24 hours at room temperature on a shaker. The total binding reaction volume was 250 μl, consisting of 200 μl purified hNaV1.7 HEK cell membranes, 25 μl test compound, and 25 μl radioligand. Non-specific binding was defined by 20 μM of a reference hNaV1.7 inhibitor. Binding reactions were terminated by filtration through GF/B filters presoaked in 0.5% polyethyleneamine. Filters were washed 5 times with 2 ml each of 4′C wash buffer (50 mM Tris-HCl, pH 7.4 at 4° C.). Bound radioactivity captured on the filters was counted on a liquid scintillation counter. Specific binding, expressed as % inhibition, was fit with Graphpad Prism software to determine binding IC50 values. Results are reported in Table 1 (NaV1.7 LBA IC50 in nM).
Sequence of hNaV1.7 (Q15858 whole entry): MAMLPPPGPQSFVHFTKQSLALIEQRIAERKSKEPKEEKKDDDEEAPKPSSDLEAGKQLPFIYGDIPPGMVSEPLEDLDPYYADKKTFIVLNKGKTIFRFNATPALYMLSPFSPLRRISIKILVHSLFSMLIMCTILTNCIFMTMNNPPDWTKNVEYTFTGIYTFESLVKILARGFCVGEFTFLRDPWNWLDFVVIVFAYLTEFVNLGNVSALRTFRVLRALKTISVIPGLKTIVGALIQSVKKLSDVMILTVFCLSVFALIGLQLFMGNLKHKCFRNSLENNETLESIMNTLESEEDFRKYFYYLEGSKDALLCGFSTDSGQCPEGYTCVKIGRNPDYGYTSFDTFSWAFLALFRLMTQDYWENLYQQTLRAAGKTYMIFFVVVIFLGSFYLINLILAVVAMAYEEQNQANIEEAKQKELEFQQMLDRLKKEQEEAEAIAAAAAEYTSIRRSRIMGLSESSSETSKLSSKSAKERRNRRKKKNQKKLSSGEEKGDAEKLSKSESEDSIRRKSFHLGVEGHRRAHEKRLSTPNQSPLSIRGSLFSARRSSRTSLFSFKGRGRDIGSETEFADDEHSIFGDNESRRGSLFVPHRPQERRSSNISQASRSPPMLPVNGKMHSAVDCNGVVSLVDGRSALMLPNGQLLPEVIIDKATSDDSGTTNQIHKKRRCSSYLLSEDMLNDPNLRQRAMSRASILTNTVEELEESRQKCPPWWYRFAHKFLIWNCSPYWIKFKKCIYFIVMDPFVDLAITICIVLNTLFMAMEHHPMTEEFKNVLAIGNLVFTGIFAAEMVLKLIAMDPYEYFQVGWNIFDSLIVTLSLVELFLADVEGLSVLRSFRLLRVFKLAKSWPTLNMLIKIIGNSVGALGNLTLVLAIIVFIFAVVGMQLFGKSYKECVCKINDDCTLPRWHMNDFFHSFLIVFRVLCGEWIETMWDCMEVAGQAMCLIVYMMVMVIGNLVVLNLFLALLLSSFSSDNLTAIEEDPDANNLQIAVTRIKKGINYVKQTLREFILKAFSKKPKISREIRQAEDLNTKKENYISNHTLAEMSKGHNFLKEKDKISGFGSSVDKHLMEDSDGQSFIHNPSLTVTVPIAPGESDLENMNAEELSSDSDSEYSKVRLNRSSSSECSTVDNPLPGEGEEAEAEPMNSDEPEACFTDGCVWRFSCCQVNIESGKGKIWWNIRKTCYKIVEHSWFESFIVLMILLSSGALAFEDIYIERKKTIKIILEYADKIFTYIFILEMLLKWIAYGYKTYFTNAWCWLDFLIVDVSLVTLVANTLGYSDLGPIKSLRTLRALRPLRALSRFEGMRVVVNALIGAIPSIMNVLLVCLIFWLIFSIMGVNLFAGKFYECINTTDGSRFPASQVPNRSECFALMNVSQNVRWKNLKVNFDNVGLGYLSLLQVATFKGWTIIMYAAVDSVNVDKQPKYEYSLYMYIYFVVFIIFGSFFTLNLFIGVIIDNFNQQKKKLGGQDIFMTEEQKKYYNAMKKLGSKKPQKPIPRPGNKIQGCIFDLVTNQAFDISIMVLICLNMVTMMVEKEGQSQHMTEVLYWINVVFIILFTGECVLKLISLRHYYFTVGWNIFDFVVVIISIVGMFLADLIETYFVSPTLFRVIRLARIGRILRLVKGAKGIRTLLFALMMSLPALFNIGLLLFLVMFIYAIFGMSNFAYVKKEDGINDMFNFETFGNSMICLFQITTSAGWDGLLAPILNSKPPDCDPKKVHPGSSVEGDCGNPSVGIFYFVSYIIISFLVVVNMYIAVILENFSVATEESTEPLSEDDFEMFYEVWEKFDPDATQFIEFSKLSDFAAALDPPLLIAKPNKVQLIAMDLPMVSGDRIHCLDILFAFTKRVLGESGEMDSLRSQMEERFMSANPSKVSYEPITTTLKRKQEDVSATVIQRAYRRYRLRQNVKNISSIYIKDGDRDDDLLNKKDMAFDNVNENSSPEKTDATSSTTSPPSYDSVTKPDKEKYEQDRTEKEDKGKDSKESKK

pIC50: −log10 of the molar value.

Sequence of NaV1.7 (Q15858 whole entry): as above
Sequence of NaV1.5 (Q14524 whole entry): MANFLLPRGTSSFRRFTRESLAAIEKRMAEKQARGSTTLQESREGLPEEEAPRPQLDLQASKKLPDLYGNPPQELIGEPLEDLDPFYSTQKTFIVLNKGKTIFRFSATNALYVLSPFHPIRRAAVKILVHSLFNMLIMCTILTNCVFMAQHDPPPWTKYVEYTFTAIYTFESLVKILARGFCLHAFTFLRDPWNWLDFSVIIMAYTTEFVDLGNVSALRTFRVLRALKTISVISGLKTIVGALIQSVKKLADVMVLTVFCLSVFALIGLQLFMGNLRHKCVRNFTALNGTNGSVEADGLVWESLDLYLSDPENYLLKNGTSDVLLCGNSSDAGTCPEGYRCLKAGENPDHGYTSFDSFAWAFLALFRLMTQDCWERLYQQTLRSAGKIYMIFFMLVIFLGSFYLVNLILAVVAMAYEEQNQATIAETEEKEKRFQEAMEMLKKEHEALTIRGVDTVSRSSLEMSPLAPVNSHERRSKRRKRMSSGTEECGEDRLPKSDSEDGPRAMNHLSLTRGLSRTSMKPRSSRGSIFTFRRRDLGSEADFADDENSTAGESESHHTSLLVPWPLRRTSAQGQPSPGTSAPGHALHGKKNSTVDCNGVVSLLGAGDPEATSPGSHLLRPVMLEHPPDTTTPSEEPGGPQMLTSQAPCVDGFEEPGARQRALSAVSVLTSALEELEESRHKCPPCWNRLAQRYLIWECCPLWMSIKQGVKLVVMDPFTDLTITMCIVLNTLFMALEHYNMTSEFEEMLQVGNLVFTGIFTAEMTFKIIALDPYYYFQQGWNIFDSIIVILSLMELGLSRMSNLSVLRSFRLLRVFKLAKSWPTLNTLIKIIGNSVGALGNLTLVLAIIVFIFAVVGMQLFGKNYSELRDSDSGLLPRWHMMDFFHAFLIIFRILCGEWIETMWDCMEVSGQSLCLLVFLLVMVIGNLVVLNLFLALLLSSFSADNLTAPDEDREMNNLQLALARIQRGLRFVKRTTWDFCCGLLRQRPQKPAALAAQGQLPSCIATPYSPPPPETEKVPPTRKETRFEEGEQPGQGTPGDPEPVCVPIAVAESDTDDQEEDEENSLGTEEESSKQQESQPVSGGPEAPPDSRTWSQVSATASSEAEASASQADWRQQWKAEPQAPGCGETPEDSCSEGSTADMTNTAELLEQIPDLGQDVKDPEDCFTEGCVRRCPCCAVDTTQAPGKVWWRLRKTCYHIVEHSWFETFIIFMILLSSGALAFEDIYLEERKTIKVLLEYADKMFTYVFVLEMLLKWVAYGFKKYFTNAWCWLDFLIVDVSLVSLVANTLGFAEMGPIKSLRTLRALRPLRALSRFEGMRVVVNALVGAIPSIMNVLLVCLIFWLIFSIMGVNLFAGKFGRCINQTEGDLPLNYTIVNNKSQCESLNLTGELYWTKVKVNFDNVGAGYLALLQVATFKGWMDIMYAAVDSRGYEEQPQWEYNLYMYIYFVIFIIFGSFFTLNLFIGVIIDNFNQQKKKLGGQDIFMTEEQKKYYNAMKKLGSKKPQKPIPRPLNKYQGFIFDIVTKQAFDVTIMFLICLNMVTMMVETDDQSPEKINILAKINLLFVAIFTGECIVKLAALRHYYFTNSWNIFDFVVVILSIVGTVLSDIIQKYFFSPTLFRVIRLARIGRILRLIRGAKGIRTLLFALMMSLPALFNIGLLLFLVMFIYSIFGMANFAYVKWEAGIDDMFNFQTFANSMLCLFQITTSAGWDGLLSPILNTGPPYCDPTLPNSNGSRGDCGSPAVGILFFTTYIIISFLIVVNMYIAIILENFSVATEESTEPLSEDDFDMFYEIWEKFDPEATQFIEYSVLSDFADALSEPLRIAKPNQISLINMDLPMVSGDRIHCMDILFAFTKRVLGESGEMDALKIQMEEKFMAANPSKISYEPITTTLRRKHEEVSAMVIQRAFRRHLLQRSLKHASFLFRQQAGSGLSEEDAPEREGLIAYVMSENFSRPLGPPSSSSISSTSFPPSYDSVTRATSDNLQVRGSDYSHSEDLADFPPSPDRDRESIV

For `CC(C)COc1ncc(-c2c3ccc(C(=O)NS(C)(=O)=O)cc3nn2C)cc1Cl` [Example 40, 3-(5-Chloro-6-isobutoxypyridin-3-yl)-2-methyl-N-(methylsulfonyl)-2H-indazole-6-carboxamide], the pIC50 at NaV1.5 is 4.78; on NaV1.7, 6.10; at hNaV1.7, 5.70.

On to `CCOc1ncc(-c2cn(C)c3cc(C(=O)NS(C)(=O)=O)ccc23)cn1` [Example 9, 3-(2-Ethoxypyrimidin-5-yl)-1-methyl-N-(methylsulfonyl)-1H-indole-6-carboxamide], for which the values for the pIC50 at NaV1.5, at NaV1.7 and on hNaV1.7 were under 4.52, under 4.52 and under 4.70, respectively.

On to `Cn1cc(-c2ccc(C(F)(F)F)cc2)c2ccc(C(=O)NS(=O)(=O)c3ccc(F)c(F)c3)cc21` [Example 21, N-((3,4-difluorophenyl)sulfonyl)-1-methyl-3-(4-(trifluoromethyl)phenyl)-1H-indole-6-carboxamide], for which the pIC50 at NaV1.5 was 4.74; at NaV1.7, under 4.52; on hNaV1.7, under 4.52.

As to `CC(C)COc1ncc(-c2cn(C(C)C)c3cc(C(=O)NS(C)(=O)=O)ccc23)cc1Cl` [Example 29, 3-(5-Chloro-6-isobutoxypyridin-3-yl)-1-isopropyl-N-(methylsulfonyl)-1H-indole-6-carboxamide], the pIC50 is 5.83 on NaV1.5, 6.15 on NaV1.7 and 7.05 at hNaV1.7.

As to `Cn1cc(-c2cnc(OCC3CC3)c(Cl)c2)c2ccc(C(=O)NS(=O)(=O)C3CC3)cc21` [Example 35, 3-(5-Chloro-6-(cyclopropylmethoxy)pyridin-3-yl)-N-(cyclopropylsulfonyl)-1-methyl-1H-indole-6-carboxamide], the results for the pIC50 on NaV1.5, at NaV1.7 and at hNaV1.7 were 4.82, 7.07 and 7.28, respectively.

`Cn1cc(-c2ccc(C(F)(F)F)cc2)c2ccc(C(=O)NS(=O)(=O)c3cccs3)cc21` [Example 20, 1-Methyl-N-(thiophen-2-ylsulfonyl)-3-(4-(trifluoromethyl)phenyl)-1H-indole-6-carboxamide]: the values for the pIC50 on NaV1.5, at NaV1.7 and on hNaV1.7 were 5.41, 6.38 and 6.44, respectively.

As for `Cn1cc(-c2ccc(C(F)(F)F)cc2)c2ccc(C(=O)NS(=O)(=O)C(F)(F)F)cc21` [Example 19, 1-Methyl-3-(4-(trifluoromethyl)phenyl)-N-((trifluoromethyl)sulfonyl)-1H-indole-6-carboxamide], the results for the pIC50 on NaV1.5, at NaV1.7 and at hNaV1.7 were 5.13, 6.09 and 5.97, respectively.

For `Cn1cc(-c2ccc(C(F)(F)F)cc2)c2ccc(C(=O)NS(=O)(=O)C3CC3)cc21` [Example 18, N-(cyclopropylsulfonyl)-1-methyl-3-(4-(trifluoromethyl)phenyl)-1H-indole-6-carboxamide], the results for the pIC50 at NaV1.5, at NaV1.7 and at hNaV1.7 were 5.06, 6.96 and 7.11, respectively.

Consider `Cn1cc(-c2cnc(OCC3CC3)c(Cl)c2)c2ccc(C(=O)NS(C)(=O)=O)cc21` [Example 34, 3-(5-Chloro-6-(cyclopropylmethoxy)pyridin-3-yl)-1-methyl-N-(methylsulfonyl)-1H-indole-6-carboxamide], for which the pIC50 at NaV1.5 is 5.08; at NaV1.7 it was 6.72; on hNaV1.7, 6.57.

With `CC(C)COc1ncc(-c2cn(C)c3cc(C(=O)NS(=O)(=O)C(C)(C)C)ccc23)cc1Cl` [Example 38, N-(tert-butylsulfonyl)-3-(5-chloro-6-isobutoxypyridin-3-yl)-1-methyl-1H-indole-6-carboxamide], the values for the pIC50 on NaV1.5, on NaV1.7 and on hNaV1.7 were 4.66, 5.89 and 6.81, respectively.

On to `Cn1cc(-c2ccc(C(F)(F)F)cc2)c2ccc(C(=O)NS(C)(=O)=O)cc21` [Example 1, 1-Methyl-N-(methylsulfonyl)-3-(4-(trifluoromethyl)phenyl)-1H-indole-6-carboxamide], for which the pIC50 was 4.71 at NaV1.5, 7.07 at NaV1.7 and 6.37 on hNaV1.7.

For `CCc1ccc(-c2cn(C)c3cc(C(=O)NS(C)(=O)=O)ccc23)cc1` [Example 14, 3-(4-Ethylphenyl)-1-methyl-N-(methylsulfonyl)-1H-indole-6-carboxamide], the negative-log IC50 (pIC50) is under 4.52 on NaV1.5, 6.76 on NaV1.7 and 6.26 on hNaV1.7.
